Key:
[1] = molecular target: hPI3K‐C2α (PIK3C2A) (Homo sapiens, UniProt O00443); assay: lipid kinase assay (ADP-Glo), PI3K-C2α; format: biochemical; conditions: Table 2; mean of at least three determinations, 95 % confidence intervals; read-out: IC50 PI3Kc2α
Protocol: (§1) In vitro selection, lipid kinase assay: To determine the inhibitory activity of the new molecular entities on PI3K enzyme, a lipid kinase assay was performed: recombinant proteins (30 ng), human PI3Kα (PIK3CA/PIK3R1, #1161‐1165‐1 ProQinase–Germany), hPI3Kβ (PIK3CB wt/PIK3R1, #1168‐1165‐1 ProQinase, Germany), hPI3Kγ (PIK3CG, #1163‐0000‐1 ProQinase, Germany), hPI3Kδ (PIK3CD/PIK3R1, #1162–1165‐1 ProQinase, Germany), hPI3K‐C2α (PIK3C2A, #14‐906 Merck Millipore_Merck KGaA, Germany), hPI3K‐C2β (PIK3C2B, #14‐907 Merck Millipore_Merck KGaA, Germany), hPI3K‐c2γ (PIK3C2G, #1207‐0000‐1 ProQinase, Germany), and hVps34 (PIK3C3, #1160‐0000‐1 ProQinase, Germany), were incubated in kinase buffer {12.5 μL; 20 mM Tris‐HCl pH 7.5, 10 mM MgCl2, 10 μM ATP, 0.05 mg mL^−1 BSA, 0.5 mM EDTA, 5 mM HEPES pH 7.5, for PI3Kα,PI3Kβ, PI3Kγ, PI3Kδ, PI3KC‐2α, and PI3KC‐2γ; 15 mM MnCl2, 5 mM EGTA, 100 μM ATP, 50 mM HEPES pH 7.5, 100 mM NaCl, and 0.03 % CHAPS for PI3K‐C2β and VPS34 {BSA=bovine serum albumin; EDTA=ethylenediaminetetraacetic acid; HEPES=4‐(2‐hydroxyethyl)‐1‐piperazineethanesulfonic acid; EGTA=ethylene glycol‐bis(2‐aminoethylether)‐N,N,N′,N′‐tetraacetic acid; CHAPS=3‐[(3‐cholamidopropyl)dimethylammonio]‐1‐propanesulfonate}. In the reaction, the ATP concentration used for different PI3Ks was defined on the basis of the Michaelis–Menten kinetics of each enzyme, provided by the supplier. […]

[2] = molecular target: T1, hVps34 (PIK3C3) (Homo sapiens, UniProt Q8NEB9); assay: lipid kinase assay (ADP-Glo), PI3K-C3; format: biochemical; conditions: Table 2; mean of at least three determinations, 95 % confidence intervals; read-out: IC50 PI3Kc3
T1 construct: purchased ProQinase, Germany 1160‐0000‐1
T1 sequence (Q8NEB9 whole entry): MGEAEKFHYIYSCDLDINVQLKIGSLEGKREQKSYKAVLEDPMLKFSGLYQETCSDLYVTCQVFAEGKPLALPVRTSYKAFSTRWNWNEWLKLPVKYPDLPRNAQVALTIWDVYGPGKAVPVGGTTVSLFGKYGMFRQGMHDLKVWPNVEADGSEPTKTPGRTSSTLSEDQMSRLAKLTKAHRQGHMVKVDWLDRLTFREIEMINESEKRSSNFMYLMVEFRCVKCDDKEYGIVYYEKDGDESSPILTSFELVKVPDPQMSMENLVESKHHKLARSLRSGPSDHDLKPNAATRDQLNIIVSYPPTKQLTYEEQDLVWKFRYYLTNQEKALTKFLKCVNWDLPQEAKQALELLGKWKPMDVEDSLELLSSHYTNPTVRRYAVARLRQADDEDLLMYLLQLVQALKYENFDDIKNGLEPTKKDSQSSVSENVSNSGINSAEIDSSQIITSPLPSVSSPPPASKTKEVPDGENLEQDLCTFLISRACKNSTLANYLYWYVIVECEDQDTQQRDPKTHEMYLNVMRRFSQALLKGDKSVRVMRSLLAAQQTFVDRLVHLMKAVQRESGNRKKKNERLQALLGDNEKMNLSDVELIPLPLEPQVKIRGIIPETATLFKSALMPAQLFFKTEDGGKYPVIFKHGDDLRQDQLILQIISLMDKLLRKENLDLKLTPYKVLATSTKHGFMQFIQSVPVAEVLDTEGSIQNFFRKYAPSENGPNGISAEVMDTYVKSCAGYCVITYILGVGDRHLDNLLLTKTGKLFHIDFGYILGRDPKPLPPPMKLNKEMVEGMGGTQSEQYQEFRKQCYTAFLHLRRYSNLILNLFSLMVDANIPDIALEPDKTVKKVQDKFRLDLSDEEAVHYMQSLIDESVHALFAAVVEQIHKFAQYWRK
Protocol: as §1

[3] = stability in mouse plasma; format: in vitro ADME; conditions: mouse, mouse plasma, 50 μM substrate, 30 min incubation, 37 °C; read-out: Mouse plasma t 1/2
Protocol: Twelve esters were prepared (see the Experimental Section for their synthesis and the Supporting Information for chromatographic methods) and evaluated in terms of metabolic stability. For this task, a combined approach based on microsomal and plasmatic stability assays was exploited considering the relevance of the plasmatic and hepatic tissues in esterase activity. Microsomal stability of the selected esters was evaluated by monitoring the disappearance of the substrate incubated in rat liver microsomes (RLM) at 50 μM concentration, in the presence of NADPH. In Table 4, the percentage of the remaining substrate, after incubation (t=60 min), with respect to the initial amount is reported. Overall, the compounds underwent a relevant metabolic transformation, and the substrate depletion ranged from 0 (for 76) to 100 % (for 70). This is mainly due to hydrolysis of the ester function, whereas the metabolites arising from the oxidation catalyzed by the NADPH‐dependent monooxygenase system were negligible from a quantitative point of view. Indeed, the main metabolite formed during the incubation of the esters was corresponding carboxyl derivative 37. […] Moreover, whereas CH2‐pyridin‐4‐yl ester 70 was completely metabolized, corresponding benzyl derivative 65 and piperonyl derivative 72 were more hydrolytically stable, and their residual substrates were 53 and 83 %, respectively. The hydrolytic stability of the selected esters was also evaluated by monitoring the depletion of the substrate incubated at a 50 μM concentration in mouse plasma over a period of 30 min. As expected, the plasmatic metabolic fate of the esters was characterized by the formation of 37 as the only metabolite (see Figure S4). The rate constant k [min^−1], derived for the substrate peak area versus time curve (single‐exponential decay equation—GraphPad Prism software, Inc., San Diego, CA (USA); see Figure S5) was used to calculate the in vitro half‐life t 1/2 [min], and the values are reported in Table 4. […]
Stability of PI3K inhibitors in mouse plasma
An aliquot of 460 µL of blank plasma spiked with substrate (50 µM, final concentration, DMSO 5%) was incubated at 37 °C for 30 minutes. Aliquots (70 µL) of the incubation took at 0-2-5-10-20, and 30 minutes were diluted with 140 µL of acetonitrile, homogenized, and centrifuged at 13,000 rpm for five minutes. Supernatants (20 µL) were injected onto HPLC.
A Shimadzu HPLC system (Shimadzu, Kyoto, Japan), consisting of two LC-10AD Vp module pumps, an SLC-10A Vp system controller, an SIL-10AD Vp autosampler, and a DGU-14-A on-line degasser was used for the analysis. All the chromatographic separations were performed on a Phenomenex Luna C18 5µm (150 x 4.6 mm i.d.) (Phenomenex srl, Castel Bolognese, Italy) as a stationary phase protected by a Luna C18 SecurityGuard (Phenomenex srl). The SPD-M10Avp photodiode array detector was used to detect the analyte at 254 nm. LC Solution 1.24 software was used to process the chromatograms. Aliquots (20 µL) of supernatants obtained from incubations were injected onto the HPLC system and eluted with a mobile phase (flow rate: 1 mL/min) consisting of solvent A- 0.5% aqueous formic acid solution and solvent B- acetonitrile/methanol 80:20.
The eluants were filtered through a 0.45-µm pore size polyvinylidene difluoride membrane […]
The following gradients programs were used: […]

hPI3K‐C2α (PIK3C2A), sequence (O00443 whole entry): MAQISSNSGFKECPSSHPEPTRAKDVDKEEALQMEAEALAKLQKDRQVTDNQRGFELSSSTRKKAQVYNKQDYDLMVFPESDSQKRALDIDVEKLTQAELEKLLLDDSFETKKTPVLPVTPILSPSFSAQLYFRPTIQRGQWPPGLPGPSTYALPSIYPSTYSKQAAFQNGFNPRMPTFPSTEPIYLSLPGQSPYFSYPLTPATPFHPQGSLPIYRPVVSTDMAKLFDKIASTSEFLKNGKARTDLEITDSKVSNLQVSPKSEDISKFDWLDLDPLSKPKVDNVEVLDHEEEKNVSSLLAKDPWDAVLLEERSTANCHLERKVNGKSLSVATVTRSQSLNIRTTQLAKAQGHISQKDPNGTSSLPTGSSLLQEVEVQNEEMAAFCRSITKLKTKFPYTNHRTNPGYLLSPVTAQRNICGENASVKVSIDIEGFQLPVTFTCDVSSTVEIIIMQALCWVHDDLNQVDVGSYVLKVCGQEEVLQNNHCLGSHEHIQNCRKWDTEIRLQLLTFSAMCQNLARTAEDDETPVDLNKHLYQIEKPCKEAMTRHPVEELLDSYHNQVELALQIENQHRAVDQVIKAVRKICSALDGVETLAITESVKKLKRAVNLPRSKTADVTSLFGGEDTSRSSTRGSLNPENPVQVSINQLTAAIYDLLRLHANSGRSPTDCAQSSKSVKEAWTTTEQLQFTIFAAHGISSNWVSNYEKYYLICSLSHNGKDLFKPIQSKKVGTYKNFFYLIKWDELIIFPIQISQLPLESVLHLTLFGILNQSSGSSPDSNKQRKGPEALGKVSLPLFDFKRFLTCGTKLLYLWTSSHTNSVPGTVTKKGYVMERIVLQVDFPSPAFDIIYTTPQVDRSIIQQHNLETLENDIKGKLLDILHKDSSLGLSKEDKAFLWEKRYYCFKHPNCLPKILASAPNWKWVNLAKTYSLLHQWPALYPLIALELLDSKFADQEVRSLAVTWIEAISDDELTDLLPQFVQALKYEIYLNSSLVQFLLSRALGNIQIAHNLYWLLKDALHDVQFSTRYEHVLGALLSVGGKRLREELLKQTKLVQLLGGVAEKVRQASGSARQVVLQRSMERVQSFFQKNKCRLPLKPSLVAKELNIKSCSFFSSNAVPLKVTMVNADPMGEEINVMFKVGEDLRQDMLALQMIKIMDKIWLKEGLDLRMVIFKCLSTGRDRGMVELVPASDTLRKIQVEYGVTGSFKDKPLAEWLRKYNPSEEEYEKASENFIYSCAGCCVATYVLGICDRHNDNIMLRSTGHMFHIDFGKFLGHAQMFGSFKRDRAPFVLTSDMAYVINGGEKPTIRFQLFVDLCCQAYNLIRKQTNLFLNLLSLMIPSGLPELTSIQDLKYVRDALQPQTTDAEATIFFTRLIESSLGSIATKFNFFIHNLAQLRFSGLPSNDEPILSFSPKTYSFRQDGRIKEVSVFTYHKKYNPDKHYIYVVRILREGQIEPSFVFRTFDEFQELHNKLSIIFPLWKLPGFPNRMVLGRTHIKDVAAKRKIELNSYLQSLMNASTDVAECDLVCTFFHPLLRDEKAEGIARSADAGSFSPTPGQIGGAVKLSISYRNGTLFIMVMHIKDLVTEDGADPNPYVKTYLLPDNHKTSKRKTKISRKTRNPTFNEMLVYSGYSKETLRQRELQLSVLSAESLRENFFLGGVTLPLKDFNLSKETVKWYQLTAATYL

Row | half-life at 50 µM [3] | Compound | IC50 [1] | IC50 [2]
1 |  | O=C(O)c1cccc(Cn2cc(-c3cccc4c(=O)cc(N5CCOCC5)[nH]c34)nn2)c1 [Compound 37, 3‐{[4‐(2‐Morpholino‐4‐oxo‐1,4‐dihydroquinolin‐8‐yl)‐1H‐1,2,3‐triazol‐1‐yl]methyl}benzoic acid] | 3700 ± 1100 nM | 590 ± 200 nM
2 | 13.3 min | COC(=O)c1cccc(Cn2cc(-c3cccc4c(=O)cc(N5CCOCC5)[nH]c34)nn2)c1 [Compound 64, Methyl 3‐{[4‐(2‐morpholino‐4‐oxo‐1,4‐dihydroquinolin‐8‐yl)‐1H‐1,2,3‐triazol‐1‐yl]methyl}benzoate] |  | 
